Measurements from patent US10130615B2, “Benzomorphan analogs and the use thereof” (priority 2014, dated 2018).
Like-named read-outs stand apart in the source and are kept apart here.

Columns and labels:
κ-opioid receptor [1] = target: T1, κ-opioid receptor (Homo sapiens, UniProt P41145); experiment: κ-opioid receptor GTPγS functional assay, U2OS cells; assay type: biochemical; design: expressed in transfected cells; host or cells: U-2 OS; conditions: U2OS cells; for EC50: read-out: GTPγS κ EC50
Experimental: (§1) Plates were incubated for 30 min at a temperature of about 25° C. with shaking.

μ-opioid receptor [2] = target: T2, μ-opioid receptor (Homo sapiens, UniProt P35372); experiment: μ-opioid receptor GTPγS functional assay, U2OS cells; conditions: for Emax: read-out: GTPγS μ Emax
μ-opioid receptor [3] = target: T2, μ-opioid receptor; experiment: cell-based; design: purchased Perkin Elmer, Shelton, Conn; conditions: U2OS cells; for EC50: read-out: β-Arr2 μ EC50; for Emax: read-out: β-Arr2 μ Emax
κ-opioid receptor [4] = target: T1, κ-opioid receptor; experiment: κ-opioid receptor β-Arr2 activity response, U2OS cells; assay type: cell-based; design: expressed in transfected cells; host or cells: U-2 OS
μ-opioid receptor [5] = target: T2, μ-opioid receptor; experiment: biochemical; design: purchased Perkin Elmer, Shelton, Conn; host or cells: HEK-293 or CHO; conditions: HEK-293 or CHO cells; for EC50: read-out: GTPγS μ EC50; for Emax: relative to DAMGO, read-out: GTPγS μ Emax
κ-opioid receptor [6] = target: T1, κ-opioid receptor; experiment: κ-opioid receptor [35S]GTPγS functional assay, HEK-293 or CHO cells; assay type: biochemical; design: expressed in transfected cells; host or cells: HEK-293; conditions: for Emax: relative to U69,593
Experimental: as §1

κ-opioid receptor [7] = target: T1, κ-opioid receptor; experiment: κ-opioid receptor radioligand binding assay ([3H]-U69,593); design: expressed in transfected cells; host or cells: HEK-293
Experimental: κ-opioid Receptor Binding Assay Procedures: Membranes from recombinant HEK-293 cells expressing the human κ opioid receptor (κ) (cloned in house) were prepared by lysing cells in ice cold hypotonic buffer (2.5 mM MgCl2, 50 mM HEPES, pH 7.4) (10 mL/10 cm dish) followed by homogenization with a tissue grinder/Teflon pestle. Membranes were collected by centrifugation at 30,000×g for 15 min at 4° C. and pellets were resuspended in hypotonic buffer to a final concentration of 1-3 mg/mL. Protein concentrations were determined using the BioRad protein assay reagent with bovine serum albumen as standard. Aliquots of κ receptor membranes were stored at −80° C.
Radioligand dose displacement assays used 0.4 nM [^3H]-U69,593 (GE Healthcare, Piscataway, N.J.; 40 Ci/mmole) with 15 μg membrane protein (recombinant κ opioid receptor expressed in HEK 293 cells; in-house prep) in a final volume of 200 μl binding buffer (5% DMSO, 50 mM Trizma base, pH 7.4). Non-specific binding was determined in the presence of 10 μM unlabeled naloxone or U69,593. All reactions were performed in 96-well polypropylene plates for 1 hr at a temperature of about 25° C.

[8] = U2OS cells, read-out: β-Arr2 κ EC50
[9] = HEK-293 or CHO cells, read-out: Ki (nM) Opioid Receptor κ
[10] = HEK-293 or CHO cells, read-out: GTPγS κ EC50

T2 sequence (P35372 whole entry, species assumed): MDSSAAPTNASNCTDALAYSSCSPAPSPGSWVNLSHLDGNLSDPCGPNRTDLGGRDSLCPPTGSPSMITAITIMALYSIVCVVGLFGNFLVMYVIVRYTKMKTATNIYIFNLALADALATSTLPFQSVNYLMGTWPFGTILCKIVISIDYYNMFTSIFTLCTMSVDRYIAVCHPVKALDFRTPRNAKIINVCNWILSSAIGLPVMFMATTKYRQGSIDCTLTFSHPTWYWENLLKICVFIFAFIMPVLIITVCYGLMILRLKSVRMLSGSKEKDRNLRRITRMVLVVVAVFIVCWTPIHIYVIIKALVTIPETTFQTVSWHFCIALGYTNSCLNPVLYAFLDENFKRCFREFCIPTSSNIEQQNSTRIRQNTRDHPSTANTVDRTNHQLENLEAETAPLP
T1 sequence (P41145 whole entry): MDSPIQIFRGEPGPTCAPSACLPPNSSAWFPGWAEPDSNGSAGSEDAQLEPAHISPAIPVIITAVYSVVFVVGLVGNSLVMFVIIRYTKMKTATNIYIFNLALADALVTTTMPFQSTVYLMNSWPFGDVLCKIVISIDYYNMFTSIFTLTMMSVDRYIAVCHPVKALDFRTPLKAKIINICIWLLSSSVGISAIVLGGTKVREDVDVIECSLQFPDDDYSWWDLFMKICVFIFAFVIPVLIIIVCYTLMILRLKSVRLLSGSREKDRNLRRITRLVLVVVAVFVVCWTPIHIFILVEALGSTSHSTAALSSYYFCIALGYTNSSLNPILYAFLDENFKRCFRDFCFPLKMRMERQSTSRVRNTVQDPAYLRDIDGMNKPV

Structure (SMILES)	Emax (κ-opioid receptor [1])	EC50 (κ-opioid receptor [1])	EC50 (μ-opioid receptor [2])	Emax (μ-opioid receptor [2])	EC50 (μ-opioid receptor [3])	Emax (μ-opioid receptor [3])	Emax (κ-opioid receptor [4]; U2OS cells)	EC50 (κ-opioid receptor [4]; [8])	EC50 (μ-opioid receptor [5])	Emax (μ-opioid receptor [5])	EC50 (κ-opioid receptor [6])	Emax (κ-opioid receptor [6]; HEK-293 or CHO cells)	Ki (κ-opioid receptor [7])	EC50 (κ-opioid receptor [4])	Ki (κ-opioid receptor [7]; [9])	EC50 (κ-opioid receptor [6]; [10])
C[C@H]1[C@H]2Cc3ccc(O)cc3[C@]1(CC(=O)N1CCC(N(C3CC3)S(=O)(=O)c3ccc(Cl)cc3)CC1)CCN2C [Compound 61, 4-chloro-N-cyclopropyl-N-(1-(2-((2R,6S,11R)-8-hydroxy-3,11-dimethyl-2,3,4,5-tetrahydro-2,6-methano-benzo[d]azocin-6(1H)-yl)acetyl)-piperidin-4-yl)benzenesulfonamide]	42.7 ± 2.03%	45.4 ± 6.69 nM	146 ± 24.8 nM	78.7 ± 0.33%	649 ± 180 nM	7.67 ± 0.73%	14.7 ± 1.33%	7290 ± 2060 nM	283 ± 28.8 nM	35.7 ± 1.2%	–	–	–	–	–	–
C[C@H]1[C@H]2Cc3ccc(O)cc3[C@]1(CCNS(C)(=O)=O)CCN2CC1CC1 [Compound 3, N-(2-((2R,6S,11R)-3-(cyclopropyl-methyl)-8-hydroxy-11-methyl-2,3,4,5-tetrahydro-2,6-methanobenzo[d]azocin-6(1H)-yl)ethyl)methanesulfonamide]	104 ± 2.52%	0.32 ± 0.031 nM	0.85 ± 0.11 nM	16.7 ± 0.33%	–	0%	-0.33 ± 0.67%	–	–	–	–	–	–	–	–	–
C[C@H]1[C@H]2Cc3ccc(O)cc3[C@]1(CCOc1cncc(C(=O)O)c1)CCN2C [Compound 52, 5-(2-((2R,6S,11R)-8-hydroxy-3,11-dimethyl-2,3,4,5-tetrahydro-2,6-methanobenzo[d]azocin-6(1H)-yl)ethoxy)nicotinic acid]	99 ± 1.73%	434 ± 39.1 nM	68.1 ± 6.57 nM	89 ± 4%	403 ± 110 nM	6.77 ± 1.13%	1%	–	320 ± 46.9 nM	35 ± 1.53%	–	–	–	–	–	–
C[C@H]1[C@H]2Cc3ccc(O)cc3[C@]1(CCO)CCN2C [Compound 12, (2R,6S,11R)-6-(2-hydroxyethyl)-3,11-dimethyl-1,2,3,4,5,6-hexahydro-2,6-methanobenzo[d]azocin-8-ol]	–	–	–	–	386 ± 89.5 nM	8.83 ± 0.44%	12.7 ± 1.57%	–	237 ± 36.2 nM	58.2 ± 1.65%	344 ± 32.6 nM	37.1 ± 1.43%	22.4 ± 3.57 nM	5520 ± 4650 nM	–	–
C[C@H]1[C@H]2Cc3ccc(O)cc3[C@]1(CCNC(=O)Nc1ccc(C(=O)O)cc1)CCN2CC1CC1 [Compound 2, 4-(3-(2-((2R,6R,11R)-3-(cyclopropyl-methyl)-8-hydroxy-11-methyl-2,3,4,5-tetrahydro-2,6-methanobenzo[d]azocin-6(1H)-yl)ethyl)ureido)benzoic acid]	106 ± 2.52%	4.11 ± 0.25 nM	1.89 ± 0.18 nM	72.5 ± 1.5%	–	-1.5%	28.7 ± 4.67%	8.4 ± 1.86 nM	–	–	–	–	–	–	7.08 ± 0.71 nM	–
COc1ccc2c(c1)[C@@]1(CCO)CCN(CC3CC3)[C@@H](C2)[C@H]1C [Compound 46, 2-((2S,6R,11S)-3-(cyclopropylmethyl)-8-methoxy-11-methyl-2,3,4,5-tetrahydro-2,6-methanobenzo[d]azocin-6(1H)-yl)ethan-1-ol]	–	–	–	–	–	–	–	–	–	–	–	–	3580 ± 457 nM	–	–	–
COc1ccc2c(c1)[C@]1(CCOCc3ccccc3)CCN(C)[C@H](C2)[C@@H]1C [Compound 48, (2R,6S,11R)-6-(2-(benzyloxy)ethyl)-8-methoxy-3,11-dimethyl-1,2,3,4,5,6-hexahydro-2,6-methanobenzo[d]azocine]	108 ± 4.51%	104 ± 15.8 nM	313 ± 28 nM	97 ± 2.08%	4380 ± 627 nM	27.7 ± 0.88%	64.3 ± 9.39%	16300 ± 7600 nM	2240 ± 190 nM	53.1 ± 4.36%	–	–	–	–	–	–
C[C@H]1[C@H]2Cc3ccc(O)cc3[C@]1(CCNCCc1ccc(S(N)(=O)=O)cc1)CCN2C [Compound 59, 4-(2-((2-((2R,6R,11R)-8-hydroxy-3,11-dimethyl-2,3,4,5-tetrahydro-2,6-methanobenzo[d]azocin-6(1H)-yl)ethyl)amino)ethyl)benzenesulfonamide]	112 ± 7.54%	61.2 ± 10 nM	85.6 ± 9.67 nM	74 ± 3.51%	–	-1%	1%	–	369 ± 50.2 nM	38 ± 4.18%	–	–	–	–	–	–
C[C@H]1[C@H]2Cc3ccc(O)cc3[C@]1(CCNS(C)(=O)=O)CCN2C [Compound 13, N-(2-((2R,6S,11R)-8-hydroxy-3,11-dimethyl-2,3,4,5-tetrahydro-2,6-methanobenzo[d]azocin-6(1H)-yl)ethyl)methanesulfonamide]	–	–	–	–	–	-1%	–	–	285 ± 72 nM	25 ± 1.53%	–	30.8 ± 0.19%	–	–	20.5 ± 3.21 nM	166 ± 1.48 nM
COc1ccc2c(c1)[C@]1(CCNC(=O)[C@@H]3CCCN3C(C)=O)CCN(CC3CC3)[C@H](C2)[C@@H]1C [Compound 5, (S)-1-acetyl-N-(2-((2R,6R,11R)-3-(cyclopropylmethyl)-8-methoxy-11-methyl-2,3,4,5-tetrahydro-2,6-methanobenzo[d]azocin-6(1H)-yl)ethyl)pyrrolidine-2-carboxamide]	100 ± 4.58%	63.3 ± 10.2 nM	629 ± 16.8 nM	75.2 ± 1.55%	–	-1%	58.7 ± 5.93%	407 ± 65.5 nM	468 ± 122 nM	16.3 ± 1.44%	–	–	–	–	–	–
CCOC(=O)c1ccc(NC(=O)NCC[C@]23CCN(CC4CC4)[C@H](Cc4ccc(OC)cc42)[C@@H]3C)cc1 [Compound 1, Ethyl 4-(3-(2-((2R,6R,11R)-3-(cyclopropylmethyl)-8-methoxy-11-methyl-2,3,4,5-tetrahydro-2,6-methanobenzo[d]azocin-6(1H)-yl)ethyl)ureido)benzoate]	103 ± 3.53%	5.79 ± 0.56 nM	164 ± 31.6 nM	62 ± 2.08%	–	25.5%	44.2 ± 4.05%	63.8 ± 7.23 nM	4.21 ± 0.67 nM	27.8 ± 0.85%	–	78.3 ± 0.91%	–	–	–	33.4 ± 2.26 nM
C[C@H]1[C@H]2Cc3ccc(O)cc3[C@]1(CCNC(=O)[C@@H]1CCCCN1)CCN2CC1CC1 [Compound 11, (S)-N-(2-((2R,6R,11R)-3-(cyclopropyl-methyl)-8-hydroxy-11-methyl-2,3,4,5-tetrahydro-2,6-methanobenzo[d]azocin-6(1H)-yl)ethyl)piperidine-2-carboxamide]	–	–	–	–	–	-1.5%	–	–	18.3 ± 5.58 nM	23 ± 1.38%	–	84 ± 3.63%	–	–	0.17 ± 0.044 nM	1.04 ± 0.059 nM
COc1ccc2c(c1)[C@]1(CCNC(=O)[C@H](C)NC(C)=O)CCN(CC3CC3)[C@H](C2)[C@@H]1C [Compound 4, (S)-2-acetamido-N-(2-((2R,6R,11R)-3-(cyclopropylmethyl)-8-methoxy-11-methyl-2,3,4,5-tetrahydro-2,6-methanobenzo[d]azocin-6(1H)-yl)ethyl)propanamide]	97 ± 5.29%	38.2 ± 4.89 nM	522 ± 60.1 nM	80.2 ± 3.3%	–	1.3 ± 0.77%	59.3 ± 4.06%	403 ± 59.9 nM	–	0%	–	–	–	–	–	–
C[C@H]1[C@H]2Cc3ccc(O)cc3[C@]1(CCN1CCC(N(C3CC3)S(=O)(=O)c3ccc(Cl)cc3)CC1)CCN2C [Compound 58, 4-chloro-N-cyclopropyl-N-(1-(2-((2R,6R,11R)-8-hydroxy-3,11-dimethyl-2,3,4,5-tetrahydro-2,6-methanobenzo-[d]azocin-6(1H)-yl)ethyl)piperidin-4-yl)-benzenesulfonamide]	60 ± 1%	11 ± 1.59 nM	20.3 ± 1.82 nM	98 ± 2%	2140 ± 586 nM	77.7 ± 7.06%	80.3 ± 7.75%	8900 ± 1620 nM	179 ± 12.7 nM	53.3 ± 2.96%	–	–	–	–	–	–
